Measurements: US8414926B1, “Nanoparticles with covalently bound surfactant for drug delivery” (University of South Florida, priority 2006, dated 2013)
Structures can show the parent of a compound that is named as a salt.

Test system: human dermal fibroblasts
Assay: Effect of surfactant combined with control nanoparticles on fibroblasts
Assay type: cell-based
Details: for toxicity to fibroblasts: combined with control nanoparticles, human dermal fibroblasts
Method: FIG. 1 is a graph showing the effect of dodecyl sulfate combined with control nanoparticles against human dermal fibroblasts.
The control nanoparticles were added to the wells as an emulsion having 5% solid content, which reduced the amount of surfactant to 0.75%; therefore, more surfactant was added to the emulsion prior to placement in the cell-containing wells in order to reach the designated amounts of surfactant being tested. […] This may be due to interactions of the surfactant with the nanoparticles, which may prohibit the surfactant from interacting with the cells.

Q: How did the toxicity to fibroblasts (1% surfactant) turn out when CCCCCCCCCCCCOS(=O)(=O)O [dodecyl sulfate] was run?
A: The toxicity to fibroblasts was “least toxic”.

Q: And the toxicity to fibroblasts (9% surfactant)?
A: The toxicity to fibroblasts was “kills all of the cells”.

Q: And the “toxicity to fibroblasts combined with control nanoparticles versus without control nanoparticles” value (healthy fibroblasts)?
A: Its value is “much less toxic”.
